From patent US20170064965A1, “ANTIMICROBIAL PEPTIDES DERIVED FROM PHAGE OF ACINETOBACTER BAUMANNII AND USE THEREOF” (Hualien Tzu Chi Hospital, Buddhist Tzu Chi Medical …, priority 2015, published 2017)
In brackets after ≈: the same amount, converted by molar mass. Read-outs that look alike come from different tables or passages of the source. Where a SMILES comes first, the peptide text is derived from it.

How the values were obtained:
Format in all cases: cell-based
[1] = system: Acinetobacter baumannii ATCC 19606; assay: Broth microdilution MIC; conditions: ATCC 19606, standard strain
Method: (§1) Determination of Minimal Inhibitory Concentration (MIC)
(§2) In order to test the inhibitory effect of the antimicrobial peptides of the present disclosure, broth microdilution test was conducted to determine the minimal inhibition concentration (MIC) of the antimicrobial peptides against bacteria. The MIC represents the minimal concentration of the peptide which has the ability to inhibit bacteria growth completely.
(§3) Acinetobacter baumannii strains used in the examples in the conduction of the minimal inhibitory concentration and the minimum bactericidal concentration tests are shown in Table 2.

[2] = system: Acinetobacter baumannii 39181
Method: as §1, §2, §3

[3] = system: Acinetobacter baumannii 39400
Method: as §1, §2, §3

[4] = system: Acinetobacter baumannii 44820
Method: as §1, §2, §3

[5] = system: Acinetobacter baumannii ATCC 17978CR; conditions: colistin-resistant
Method: as §1, §2, §3

[6] = system: Acinetobacter baumannii ATCC 19606CR; conditions: colistin-resistant
Method: as §1, §2, §3

[7] = system: Acinetobacter baumannii BCRC 80276
Method: as §1, §2, §3

[8] = system: Acinetobacter baumannii ATCC 19606; assay: Minimum bactericidal concentration (MBC) determination; conditions: ATCC 19606, standard strain
Method: (§4) Determination of Minimum Bactericidal Concentration (MBC)
(§5) In order to find out the minimum bactericidal concentration of the antimicrobial peptides of the present disclosure against bacteria, the surface of a suitable culture medium was covered by 100 μL of antimicrobial peptides at the minimal inhibitory concentration determined above with glass beads, then the medium was cultured at 37° C. for 24 hours, thereafter, and observation was conducted for 3 days. When no colony grew, it is the indication that the bacteria have been killed.
as §3

[9] = system: Acinetobacter baumannii 39181; remark: listed apart in the source
Method: as §4, §5, §3

[10] = system: Acinetobacter baumannii 39400; remark: listed apart in the source
Method: as §4, §5, §3

[11] = system: Acinetobacter baumannii 44820; remark: listed apart in the source
Method: as §4, §5, §3

[12] = system: Acinetobacter baumannii ATCC 17978CR; conditions: colistin-resistant; remark: listed apart in the source
Method: as §4, §5, §3

[13] = system: Acinetobacter baumannii ATCC 19606CR; conditions: colistin-resistant; remark: listed apart in the source
Method: as §4, §5, §3

[14] = system: Acinetobacter baumannii BCRC 80276; remark: listed apart in the source
Method: as §4, §5, §3

Acinetobacter baumannii [15] = assay: Broth microdilution MIC, summary in text
Method: as §1, §2

Acinetobacter baumannii [16] = assay: MBC determination
Method: as §4, §5

Acinetobacter baumannii [17] = assay: Scanning electron microscope observation of bacterial destruction; conditions: 80 μM peptide, 1×10^9 CFU bacteria, 37° C., 1 hour
[18] = system: Acinetobacter baumannii ATCC 17978; assay: Broth microdilution MIC; conditions: ATCC 17978, standard strain
Method: as §1, §2, §3

[19] = system: Acinetobacter baumannii ATCC 17978; assay: Minimum bactericidal concentration (MBC) determination; conditions: ATCC 17978, standard strain
Method: as §4, §5, §3

[20] = BCRC 80276, multidrug-resistant
[21] = Acinetobacter baumannii, summary of Table 3
[22] = multidrug-resistant Acinetobacter baumannii

Row | Structure (SMILES) | Minimal Inhibitory Concentration (MIC) [1] [µM] | Minimal Inhibitory Concentration (MIC) ([2]; 39181, multidrug-resistant) [µM] | Minimal Inhibitory Concentration (MIC) ([3]; 39400, multidrug-resistant) [µM] | Minimal Inhibitory Concentration (MIC) ([4]; 44820, multidrug-resistant) [µM] | Minimal Inhibitory Concentration (MIC) [5] [µM] | Minimal Inhibitory Concentration (MIC) [6] [µM] | Minimal Inhibitory Concentration (MIC) [7, 20] [µM] | Minimum Bactericidal Concentration (MBC) [8] [µM] | Minimum Bactericidal Concentration (MBC) ([9]; 39181, multidrug-resistant) [µM] | Minimum Bactericidal Concentration (MBC) ([10]; 39400, multidrug-resistant) [µM] | Minimum Bactericidal Concentration (MBC) ([11]; 44820, multidrug-resistant) [µM] | Minimum Bactericidal Concentration (MBC) [12] [µM] | Minimum Bactericidal Concentration (MBC) [13] [µM] | Minimum Bactericidal Concentration (MBC) [14, 20] [µM] | minimal inhibitory concentration (Acinetobacter baumannii [15]; [21]) [µM] | minimum bactericidal concentration (Acinetobacter baumannii [16]; [21]) [µM] | appearance of bacteria under scanning electron microscope (Acinetobacter baumannii [17]) | Minimal Inhibitory Concentration (MIC) [18] [µM] | Minimum Bactericidal Concentration (MBC) [19] [µM] | also measured
1 | CC[C@H](C)[C@H](NC(=O)[C@H](C)NC(=O)[C@@H](NC(=O)[C@H](CCC(N)=O)NC(=O)[C@@H](NC(=O)[C@H](C)NC(=O)[C@@H](NC(=O)[C@H](CC(C)C)NC(=O)[C@@H]1CCCN1C(=O)[C@H](CCC(=O)O)NC(=O)[C@H](CC(C)C)NC(=O)[C@H](C)NC(=O)[C@H](CCCCN)NC(=O)[C@H](CCC(=O)O)NC(=O)[C@@H]1CCCN1C(=O)[C@@H](N)CC(N)=O)[C@@H](C)CC)[C@@H](C)CC)[C@@H](C)CC)C(=O)N[C@@H](CCCCN)C(=O)NCC(=O)N[C@@H](CCSC)C(=O)N[C@@H](CC(C)C)C(=O)N[C@@H](CC(N)=O)C(=O)NCC(=O)N[C@@H](Cc1c[nH]c2ccccc12)C(=O)N[C@@H](Cc1ccccc1)C(=O)N[C@H](C(=O)NCC(=O)N[C@H](C(=O)NCC(=O)N[C@@H](Cc1ccccc1)C(=O)N[C@@H](CCCNC(=N)N)C(=O)N[C@@H](CCCNC(=N)N)C(=O)N[C@@H](CCCCN)C(=O)N[C@@H](CCCNC(=N)N)C(=O)O)C(C)C)[C@@H](C)O [LysAB2 113-145] (H-NPEKALEPLIAIQIAIKGMLNGWFTGVGFRRKR-OH; N-terminus and C-terminus assumed) | 64 | 64 | 64 | 64 | 64 | 64 | 64 | 64 | 64 | 64 | 64 | 64 | 64 | 64 | 64 (≈ 238 µg/mL) | 64 (≈ 238 µg/mL) | surface of the bacterial body is incomplete and has holes thereon, even is broken | – | – | –
2 | CC[C@H](C)[C@H](NC(=O)[C@H](C)NC(=O)[C@H](CCCCN)NC(=O)[C@H](CCC(N)=O)NC(=O)[C@@H](NC(=O)[C@H](C)NC(=O)[C@@H](NC(=O)[C@H](CC(C)C)NC(=O)[C@H](CCCCN)NC(=O)[C@H](CCC(=O)O)NC(=O)[C@H](CC(C)C)NC(=O)[C@H](C)NC(=O)[C@H](CCCCN)NC(=O)[C@@H](N)CCC(=O)O)[C@@H](C)CC)[C@@H](C)CC)C(=O)N[C@@H](CCCCN)C(=O)NCC(=O)N[C@@H](CCSC)C(=O)N[C@@H](CC(C)C)C(=O)N[C@@H](CC(N)=O)C(=O)NCC(=O)N[C@@H](Cc1c[nH]c2ccccc12)C(=O)N[C@@H](Cc1ccccc1)C(=O)N[C@H](C(=O)NCC(=O)N[C@H](C(=O)N[C@@H](Cc1ccccc1)C(=O)N[C@@H](CCCNC(=N)N)C(=O)N[C@@H](CCCNC(=N)N)C(=O)N[C@@H](CCCCN)C(=O)N[C@@H](CCCNC(=N)N)C(=O)O)C(C)C)[C@@H](C)O [LysAB2 113-145 G1] (H-EKALEKLIAIQKAIKGMLNGWFTGVFRRKR-OH; N-terminus and C-terminus assumed) | 8 | 8 | 8 | 8 | 16 | 16 | 8 | 8 | 8 | 8 | 8 | 16 | 16 | 8 | – | – | – | 8 | 8 | –
3 | CC[C@H](C)[C@H](NC(=O)[C@H](C)NC(=O)[C@H](CCCCN)NC(=O)[C@H](CCC(N)=O)NC(=O)[C@@H](NC(=O)[C@H](C)NC(=O)[C@@H](NC(=O)[C@H](CC(C)C)NC(=O)[C@H](CCCCN)NC(=O)[C@H](CCC(=O)O)NC(=O)[C@H](CC(C)C)NC(=O)[C@H](C)NC(=O)[C@H](CCCCN)NC(=O)[C@@H](N)CCC(=O)O)[C@@H](C)CC)[C@@H](C)CC)C(=O)N[C@@H](CCCCN)C(=O)NCC(=O)N[C@@H](CCSC)C(=O)N[C@@H](CC(C)C)C(=O)N[C@@H](C)C(=O)NCC(=O)N[C@@H](Cc1c[nH]c2ccccc12)C(=O)N[C@@H](Cc1ccccc1)C(=O)N[C@H](C(=O)NCC(=O)N[C@H](C(=O)N[C@@H](C)C(=O)N[C@@H](CCCNC(=N)N)C(=O)N[C@@H](CCCNC(=N)N)C(=O)N[C@@H](CCCCN)C(=O)N[C@@H](CCCNC(=N)N)C(=O)O)C(C)C)[C@@H](C)O [LysAB2 113-145 G3] (H-EKALEKLIAIQKAIKGMLAGWFTGVARRKR-OH) | 16 | – | – | – | 16 | 16 | – | 16 | – | – | – | 32 | 32 | – | – | – | – | 16 | 16 | Minimal Inhibitory Concentration (MIC) [2]; 39181: 16 µM; Minimal Inhibitory Concentration (MIC) [3]; 39400: 16 µM; Minimal Inhibitory Concentration (MIC) [4]; 44820: 16 µM; Minimal Inhibitory Concentration (MIC) ([7]; BCRC 80276): 16 µM; Minimum Bactericidal Concentration (MBC) [9]; 39181: 16 µM; Minimum Bactericidal Concentration (MBC) [10]; 39400: 16 µM; Minimum Bactericidal Concentration (MBC) [11]; 44820: 16 µM; Minimum Bactericidal Concentration (MBC) ([14]; BCRC 80276): 16 µM
4 | CC[C@H](C)[C@H](NC(=O)[C@H](C)NC(=O)[C@H](CCCCN)NC(=O)[C@H](CCC(N)=O)NC(=O)[C@@H](NC(=O)[C@H](C)NC(=O)[C@@H](NC(=O)[C@H](CC(C)C)NC(=O)[C@H](CCCCN)NC(=O)[C@H](CCC(=O)O)NC(=O)[C@H](CC(C)C)NC(=O)[C@H](C)NC(=O)[C@H](CCCCN)NC(=O)[C@H](CCC(=O)O)NC(=O)[C@@H]1CCCN1C(=O)[C@@H](N)CC(N)=O)[C@@H](C)CC)[C@@H](C)CC)C(=O)N[C@@H](CCCCN)C(=O)NCC(=O)N[C@@H](CCSC)C(=O)N[C@@H](CC(C)C)C(=O)N[C@@H](CC(N)=O)C(=O)NCC(=O)N[C@@H](Cc1c[nH]c2ccccc12)C(=O)N[C@@H](Cc1ccccc1)C(=O)N[C@H](C(=O)NCC(=O)N[C@H](C(=O)NCC(=O)N[C@@H](Cc1ccccc1)C(=O)N[C@@H](CCCNC(=N)N)C(=O)N[C@@H](CCCNC(=N)N)C(=O)N[C@@H](CCCCN)C(=O)N[C@@H](CCCNC(=N)N)C(=O)O)C(C)C)[C@@H](C)O [LysAB2 113-145 G4] (H-NPEKALEKLIAIQKAIKGMLNGWFTGVGFRRKR-OH; N-terminus and C-terminus assumed) | 4 | 4 | 4 | 4 | 8 | 8 | 4 | 4 | 4 | 4 | 4 | 8 | 8 | 4 | 4 (≈ 15.1 µg/mL) | 4 (≈ 15.1 µg/mL) | incomplete surface and holes thereon | – | – | minimal inhibitory concentration (Acinetobacter baumannii [15]; [22]): 4 µM (≈ 15.1 µg/mL); minimum bactericidal concentration (Acinetobacter baumannii [16]; [22]): 4 µM (≈ 15.1 µg/mL)
